Molecular target: T1, MERTK (cMER) A708S (Homo sapiens, UniProt Q12866, A708S)
T1 construct: purchased Thermo Fisher Scientific (Life Technologies) SelectScreen
Assay: SelectScreen LanthaScreen
Format: binding
Conditions: read-out: % displacement
Description: The in vitro kinase selectivity of NU5455 was determined using the SelectScreen Broad Assay Panel (Thermo Fisher Scientific) involving activity and binding assays (Supplemental Table 1). […] Class IA PI3Ks were measured using the p85α subunit.
Kinase [ATP] % Assay Kinase [ATP] % Assay Kinase [ATP] % Assay Kinase [ATP] % Assay […]
FGR Km app 12.1 Z SRC N1 Km app 3.9 Z MERTK (cMER) A708S n/a 0.6 L RET M918T n/a -3.5 L […]
SGK (SGK1) Km app 8.5 Z MAP4K2 (GCK) Km app 2.7 Z TLK2 n/a -0.3 L STK38 (NDR) n/a -5.9 L
MERTK (cMER) Km app 8.3 Z CDK2/cyclin A Km app 2.7 Z TGFBR1 (ALK5) n/a -0.4 L MATK (HYL) Km app -6.3 Z
FYN Km app 8.3 Z EPHA1 Km app 2.7 Z CLK3 Km app -0.5 Z ABL1 E255K Km app -6.6 Z
TEC n/a 8.1 L CDK2/cyclin E1 n/a 2.7 L MAP3K14 (NIK) n/a -0.5 L STK17A (DRAK1) n/a -6.6 L
KIT V654A n/a 8.1 L TESK2 n/a 2.7 L AKT3 (PKB gamma) Km app -0.5 Z JAK2 JH1 JH2 Km app -6.7 Z
ROS1 Km app 8.0 Z SPHK1 Km app 2.7 A MAP3K9 (MLK1) Km app -0.5 Z PRKACB (PRKAC beta) n/a -6.8 L
FGFR3 K650E Km app 7.9 Z AMPK A2/B1/G1 Km app 2.6 Z IKBKB (IKK beta) Km app -0.6 Z PDGFRA (PDGFR alpha) Km app -6.8 Z
RAF1 (cRAF) Y340D Y341D 100 7.9 Z DYRK3 Km app 2.6 Z CAMK2A (CaMKII alpha) Km app -0.6 Z NEK9 Km app -7.2 Z
PI4KA (PI4K alpha) 10 7.8 A CSNK1D (CK1 delta) Km app 2.6 Z PRKCB1 (PKC beta I) Km app -0.7 Z PDK1 Km app -7.3 Z
HIPK2 Km app 7.8 Z ACVR2A n/a 2.5 L TTK n/a -0.7 L RPS6KB1 (p70S6K) Km app -7.8 Z […]

T1 sequence (Q12866 21-999 A708S): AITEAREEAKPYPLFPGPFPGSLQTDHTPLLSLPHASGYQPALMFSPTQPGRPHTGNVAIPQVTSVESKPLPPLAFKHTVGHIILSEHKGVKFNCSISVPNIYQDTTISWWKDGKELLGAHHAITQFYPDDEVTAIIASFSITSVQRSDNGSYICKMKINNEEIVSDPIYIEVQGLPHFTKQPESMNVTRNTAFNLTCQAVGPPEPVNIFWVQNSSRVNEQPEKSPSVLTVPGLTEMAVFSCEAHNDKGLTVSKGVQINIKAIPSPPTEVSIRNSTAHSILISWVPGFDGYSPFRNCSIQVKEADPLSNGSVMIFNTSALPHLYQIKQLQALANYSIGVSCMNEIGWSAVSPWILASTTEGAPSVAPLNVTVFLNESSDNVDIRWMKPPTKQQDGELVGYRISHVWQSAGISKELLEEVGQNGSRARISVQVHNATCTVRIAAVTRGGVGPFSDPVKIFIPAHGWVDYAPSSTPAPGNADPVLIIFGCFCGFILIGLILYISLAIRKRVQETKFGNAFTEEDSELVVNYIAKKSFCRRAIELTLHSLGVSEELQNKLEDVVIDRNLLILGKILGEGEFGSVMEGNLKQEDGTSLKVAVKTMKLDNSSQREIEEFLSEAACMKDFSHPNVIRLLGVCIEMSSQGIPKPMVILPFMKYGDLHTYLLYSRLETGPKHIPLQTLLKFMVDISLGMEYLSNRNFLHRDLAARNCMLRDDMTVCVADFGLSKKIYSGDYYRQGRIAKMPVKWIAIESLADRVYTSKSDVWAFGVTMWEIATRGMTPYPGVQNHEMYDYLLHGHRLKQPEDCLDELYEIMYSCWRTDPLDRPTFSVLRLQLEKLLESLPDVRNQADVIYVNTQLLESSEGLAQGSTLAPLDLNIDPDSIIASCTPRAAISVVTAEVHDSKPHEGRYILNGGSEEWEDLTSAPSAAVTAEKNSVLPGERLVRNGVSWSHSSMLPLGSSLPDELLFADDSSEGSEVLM

Compound: CN(C(=O)CN1CCOCC1)c1ccc2sc3c(-c4cccc5c(=O)cc(N6CC7CCC(C6)O7)oc45)cccc3c2c1 [NU5455]
- inhibition at 1 µM: 0.6%
